# Columns and labels:
# Type in all cases: cell-based, human
# [1] = tested on: SDH-B deficient GIST metastases to the peritoneum; assay: Decitabine treatment of GIST tissue in ex vivo perfusion system (H&E, IHC, live imaging); settings: 0-10 μM in perfusate; tissues harvested after 4 days
# From the text: The system of FIG. 7A is also well-suited as a translational tool and/or as a tool for enrollment into clinical trials, especially where pre-clinical models are otherwise non-existent. For example, SDH-B deficient GIST is a rare subtype driven by epigenetic silencing of the gene, unresponsive to conventional agents (imatinib) and with no available cell lines or mouse models. Tissue from a patient with SDH-B deficient GIST was utilized in the system of FIG. 7A to investigate decitabine, a potential treatment option being evaluated for this population. Using early demethylation markers as a read-out, changes associated with decitabine treatment at physiologic and supraphysiologic doses were not detected. […] Sample platforms of tissue from the patient with GIST metastases to the peritoneum were cultured in perfusate supplemented with 0-10 μM decitabine. […] Stack projections of live images of control sample at day 0 and day 3 as well as a sample treated with 5 μM decitabine with fluorophore-conjugated antibodies against CD45 and CD117 also show no changes in the decitabine-treated tissue.
# In any of the above discussed examples, tissue from system 700 was subject to similar histopathologic evaluations. […] Viability on H&E was defined as preservation of normal tissue architecture, intact nuclei, and normal population of immune cells (qualitative and quantitative). […]
# [2] = tested on: resected cholangiocarcinoma tumor and liver capsule; assay: Tivozanib treatment of cholangiocarcinoma tissue in ex vivo perfusion system (H&E, Ki67)
# Method: In another example, the system of FIG. 7A was used to identify a new target in patients with cholangiocarcinoma. The target is a kinase, SLK, that activates AKT signaling leading to aggressive tumor biology and poor patient outcomes. Although no SLK-specific inhibitor exists, the kinome profiles of available kinase inhibitors was evaluated, and tivozanib was identified. Using tissue from a patient with cholangiocarcinoma in the system of FIG. 7A, tivozanib was evaluated. […] Resected cholangiocarcinoma tumor as well as liver capsule mounted on sample platforms treated with 0-1 mg/ml tivozanib were prepared for IHC, stained with H&E and Ki67 antibody. Cells in control and drug-treated platforms were evaluated for viability, degeneration and necrosis.
# In any of the above discussed examples, tissue from system 700 was subject to similar histopathologic evaluations. For example, the tissues were preserved in the 10% neutral buffered formalin, then through the tissue processor and embedded in paraffin and cut at 5-micron sections for hematoxylin and eosin (H&E) slides. Slides were prepared for H&E staining and immunohistochemistry, respectively to detect CD3 (T cells), CD68 (macrophages), Ki-67 and MIBI (mitotic activity). CD3 and CD68 were predilute antibodies as purchased, while Ki-67 and (MIB-1) were run at 1:200 dilution. All stains were done on an automated immunostainer (Ventana Benchmark Ultra). Viability on H&E was defined as preservation of normal tissue architecture, intact nuclei, and normal population of immune cells (qualitative and quantitative). Each sample was compared against day 0 control samples. Ki67 or stains were performed to assess proliferative activity of the tumor cells. Samples stained with Ki67 or MIB1 on day 4 were compared to day 0 samples to confirm no change in proliferative activity.
# [3] = tested on: sidewall peritoneum from a gastric cancer patient (gastric adenocarcinoma); assay: Check-point inhibitor evaluation in ex vivo perfusion system, gastric cancer tissue (2-photon imaging); settings: incubated for 2 days; Alexa488CD44/Alexa594CD45 antibodies
# Method: (§1) The system of FIG. 7A is well-suited to evaluate immunotherapeutic agents. Given that check-point inhibitors have made their way into the clinic for seemingly most solid tumors, such inhibitors were evaluated in the system of FIG. 7A using a tumor from a patient with gastric adenocarcinoma and a tumor from a patient with colorectal adenocarcinoma. Neither of these histologies have significant response rates to check-point inhibitors outside of select genomic subpopulations, which was not applicable to either patient in this example. FIGS. 12A-12D illustrates results of this example.
# (§2) In the top panel, sample platforms with sidewall peritoneum from a gastric cancer patient were incubated with immune checkpoint inhibitor pembrolizumab for 2 days followed by Alexa488CD44/Alexa594CD45 antibodies. Maximum projections of 2-photon images illustrate the intimate contact between CD45-positive cells and the cancer cells. The bottom panel provides a timeseries montage of images taken from liver capsule tissue mounted on sample platforms from a colorectal cancer patient with liver metastases incubated with 5 μg/ml of pembrolizumab for 4 hr. […]
# (§3) Image acquisition was performed on an inverted Leica SP8 setup using multiphoton excitation at 870 nm together with a 25×/0.95 W VISIR lens. […] Images were analyzed using ImageJ software. […]
# [4] = tested on: liver capsule tissue from a colorectal cancer patient with liver metastases (colorectal adenocarcinoma); assay: Check-point inhibitor evaluation in ex vivo perfusion system, colorectal cancer tissue (timeseries imaging); settings: 5 μg/ml for 4 hr
# Method: as §1, §2, §3
compound,measurement,setting,value
Nc1ncn([C@H]2C[C@H](O)[C@@H](CO)O2)c(=O)n1 [decitabine],"methylation status of GIST (SDHB, 5-HMC, 5-MC IHC)",[1],no effect
same,proliferation activity of GIST (Ki67),[1],no effect
COc1cc2nccc(Oc3ccc(NC(=O)Nc4cc(C)on4)c(Cl)c3)c2cc1OC [tivozanib],"cell death in liver metastases (viability, degeneration, necrosis)","[2]; 0-1 mg/ml, FIGS. 12C-12D",induces cell death
same,tumor cell effect at physiologic doses,[2]; physiologic doses,tumor cell degeneration
same,tumor cell effect at supraphysiologic concentrations,[2]; supraphysiologic concentrations,frank necrosis
pembrolizumab,binding of immune cells (CD45-positive) to cancer cells,[3],stimulates binding of immune cells to cancer cells
same,immune cell engagement with tumor cells,[4],Immune cell engagement was observed
same,tumor cell lysis / apoptosis of CD44-positive cancer cells bound by CD45-positive cells,[4],captured tumor cell lysis

# Reference: patent publication US20240209302A1, “SYSTEMS, METHODS, AND DEVICES FOR EX VIVO ANALYSIS OF RESECTED TISSUE SAMPLES” (The United States of America,as represented by the …, priority 2020, published 2024)
